This note sets out measurements from patent publication US20110230472A1, “RING-FUSED AZOLE DERIVATIVE HAVING PI3K-INHIBITING ACTIVITY” (Shionogi & Co., Ltd., priority 2008, published 2011).

Each structure is given as a SMILES string. Where only a bound is given, the exact number is not on record here.

In one data set the target is T1, CYP1A2 (Homo sapiens, UniProt P05177).
T1 construct: enzyme: pooled human liver microsome 0.2 mg protein/mL; from tissue; host or cells: pooled human liver microsome
T1 sequence (P05177 1-516): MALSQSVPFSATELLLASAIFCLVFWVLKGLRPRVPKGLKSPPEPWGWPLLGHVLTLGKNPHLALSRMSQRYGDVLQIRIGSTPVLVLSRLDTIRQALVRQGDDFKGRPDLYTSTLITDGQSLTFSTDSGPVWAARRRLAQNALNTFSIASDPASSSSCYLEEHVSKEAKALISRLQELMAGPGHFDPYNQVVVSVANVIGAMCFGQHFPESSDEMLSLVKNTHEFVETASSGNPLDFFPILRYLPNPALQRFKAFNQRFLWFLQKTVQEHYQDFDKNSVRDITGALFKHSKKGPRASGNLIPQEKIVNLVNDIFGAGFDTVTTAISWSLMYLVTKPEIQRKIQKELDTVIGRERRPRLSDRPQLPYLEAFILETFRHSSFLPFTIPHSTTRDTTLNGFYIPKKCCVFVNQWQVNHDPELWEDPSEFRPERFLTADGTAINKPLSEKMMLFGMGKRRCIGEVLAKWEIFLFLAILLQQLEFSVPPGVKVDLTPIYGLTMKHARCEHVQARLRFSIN
Kind of data set: CYP inhibition test, pooled human liver microsome, CYP1A2. The format is in vitro ADME. To be noted: O-de-ethylation of 7-ethoxyresorufin. The text has this:
O-de-ethylation of 7-ethoxyresorufin (CYP1A2), methyl-hydroxylation of tolbutamide (CYP2C9), 4′-hydroxylation of mephenyloin (CYP2C19), O-demethylation of dextromethorphan (CYP2D6), and hydroxylation of terfenadine (CYP3A4), which are typical substrate for metabolic reactions of human main CYP5 molecular species (CYP1A2, 2C9, 2C19, 2D6, and 3A4), were adopted as indexes.
The reaction conditions are as follows: substrate: 0.5 μmol/L of ethoxyresorufin (CYP1A2), 100 μmol/L of tolbutamide (CYP2C9), […] of S-mephenyloin (CYP2C19), 5 μmol/L of dextromethorphan (CYP2D6), and 1 μmol/L of terfenadine (CYP3A4); reaction time; 15 minutes; reaction temperature: 37° C.; enzyme: pooled human liver microsome 0.2 mg protein/mL; test drug concentration: 1, 5, 10, and 20 μmol/L (4 points).
In a 96-well plate, as a reaction solution, five kinds of substrates, a human liver microsome, and a test drug were added to 50 mmol/L Hepes buffer solution in the aforementioned ratio. A coenzyme NADPH was added to start a metabolic reaction, which is an index. After reacting at 37° C. for 15 minutes, a solution of methanol/acetonitrile (1/1 (v/v)) was added to quench the reaction. After centrifugation at 3000 rpm for 15 minutes, resorufin (CYP1A2 metabolite) in the supernatant was quantitated with a fluorescence multilabel counter, and hydroxylated tolbutamide (CYP2C9 metabolite), 4′-hydroxylated mephenyloin (CYP2C19 metabolite), […], terfenadine in alcohol form (CYP3A4 metabolite) were quantitated with LC/MS/MS.
The case wherein only DMSO (a solvent which dissolved a drug) was added to a reaction system was defined as a control (100%). When a test drug solution was added, the remaining activity (%) at each concentration was calculated, and then IC50 was calculated with a concentration and an inhibition ratio by an inverse estimation using a logistic model.

The target in data set [1] is T2, human ether-a-go-go related gene (hERG) channel (Homo sapiens, UniProt Q12809).
T2 construct: expressed in transfected cells; host or cells: HEK293
The experiment in a line: hERG test, whole-cell patch-clamp. Conditions: HEK293 cell expressing hERG; applied for 10 minutes; concentration not given. The format is cell-based. The source says: For the purpose of risk evaluation of QT interval extension of electrocardiogram, the activity on delayed rectification K^+ current (IKr), which plays an important role in a cardiac ventricle repolarization process, was examined using the HEK293 cell that was made to express human ether-a-go-go related gene (hERG) channel.
Using an automatic patch-clamp system (PatchXpress 7000A, Axon Instruments Inc.), by a whole-cell patch-clamp method, after the cell was maintained at a membrane potential of −80 mV, IKr induced upon applying depolarizing stimulation of +50 mV for 2 seconds and further applying repolarizing stimulation of −50 mV for 2 seconds was recorded. After generated electric current became stable, a test substance dissolved at an intended concentration in extracellular fluid (137 mmol/L NaCl, 4 mmol/L KCl, 1.8 mmol/L CaCl2.2H2O, 1 mmol/L MgCl2.6H2O, 10 mmol/L glucose, 10 mmol/L HEPES (4-(2-hydroxyethyl)-1-piperazineethanesulfonic acid), pH=7.4) was applied to the cell for 10 minutes under room temperature condition. From the obtained IKr, the absolute value of the maximum tail current was measured using analysis software (DataXpress ver. 1, Molecular Devices Corporation) and the value of the electric current in a maintained membrane potential as baseline. Moreover, an inhibition ratio for the maximum tail current prior to the application of the test substance was calculated and then compared with a group of media-application (0.1% dimethylsulfoxide solution) to evaluate influence of the test substance on IKr.

A short description of a further data set: Solubility test. The format is physicochemical. Conditions: kinetic from dmso stock; artificial intestinal juice pH 6.8, 1% DMSO, 25° C. for 16 hours. In short, it runs like this: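 Kinetic solubility with 1% DMSO: compound from 10 mmol/L DMSO stock spiked into pH 6.8 phosphate artificial intestinal juice, held 16 h at 25 °C, then suction-filtered. Filtrate diluted twofold in methanol/water (1/1) and quantified by HPLC or LC/MS/MS via absolute calibration.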

T2 sequence (Q12809 whole entry): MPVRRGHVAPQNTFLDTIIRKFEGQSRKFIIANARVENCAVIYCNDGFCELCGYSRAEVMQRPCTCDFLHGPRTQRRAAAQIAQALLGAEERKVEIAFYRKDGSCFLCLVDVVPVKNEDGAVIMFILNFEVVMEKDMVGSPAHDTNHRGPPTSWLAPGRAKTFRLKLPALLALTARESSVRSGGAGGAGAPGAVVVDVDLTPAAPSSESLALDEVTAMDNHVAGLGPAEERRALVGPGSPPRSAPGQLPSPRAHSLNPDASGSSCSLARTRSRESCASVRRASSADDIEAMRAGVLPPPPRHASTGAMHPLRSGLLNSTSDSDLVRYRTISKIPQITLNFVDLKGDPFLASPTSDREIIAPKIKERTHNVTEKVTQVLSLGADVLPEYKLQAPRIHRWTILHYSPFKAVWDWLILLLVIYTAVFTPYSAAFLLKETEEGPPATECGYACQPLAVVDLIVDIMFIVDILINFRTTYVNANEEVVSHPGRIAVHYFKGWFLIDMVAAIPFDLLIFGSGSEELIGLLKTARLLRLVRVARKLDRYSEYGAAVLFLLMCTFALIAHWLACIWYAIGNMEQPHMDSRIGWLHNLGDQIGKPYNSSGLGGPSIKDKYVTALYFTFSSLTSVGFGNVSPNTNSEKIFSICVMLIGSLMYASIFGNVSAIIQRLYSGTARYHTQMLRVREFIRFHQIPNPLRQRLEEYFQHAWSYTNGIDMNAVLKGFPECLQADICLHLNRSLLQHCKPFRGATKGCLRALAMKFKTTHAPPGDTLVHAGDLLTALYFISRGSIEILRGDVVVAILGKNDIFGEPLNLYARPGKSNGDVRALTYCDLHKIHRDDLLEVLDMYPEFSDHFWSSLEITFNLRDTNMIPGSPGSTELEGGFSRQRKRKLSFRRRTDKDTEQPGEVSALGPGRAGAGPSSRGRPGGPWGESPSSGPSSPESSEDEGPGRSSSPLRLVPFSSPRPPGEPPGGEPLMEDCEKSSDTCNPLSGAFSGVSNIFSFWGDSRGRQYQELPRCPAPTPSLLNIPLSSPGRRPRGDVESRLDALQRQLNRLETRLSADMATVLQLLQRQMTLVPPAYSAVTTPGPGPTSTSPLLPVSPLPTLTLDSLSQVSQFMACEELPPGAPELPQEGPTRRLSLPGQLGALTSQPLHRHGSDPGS

Take `COc1cc(N2CCc3nc(NC(=O)NCc4cc(=O)[nH]o4)sc3C2)nc(OC)n1` [Compound I-279]: at CYP1A2, the IC50 is > 20 µM. Moreover, the “inhibition ratio for the maximum tail current (IKr)” value (shortened to “inhibition ratio”) in data set [1] was found to be 5%.

As for `CNC(=O)Nc1cc2n(n1)CCN2c1cc(C(=O)N2CCOCC2)cc(-c2ccc(N)nc2)c1` [Compound I-200], the IC50 against CYP1A2 was > 20 µM. Also, the solubility at 16 h in the data set “Solubility test” was > 50 µM. In addition, in data set [1], the “inhibition ratio” value was found to be 7.3%.

Regarding `CNC(=O)Nc1nc2c(s1)CN(c1ccnc(OC)n1)CC2` [Compound I-142], at CYP1A2, the IC50 was > 20 µM. Besides, the solubility at 16 h in “Solubility test” was > 50 µM.

With `CNC(=O)Nc1cc2n(n1)CCN2c1ccc(S(C)(=O)=O)cc1` [Compound I-89], the IC50 against CYP1A2 was > 20 µM. For the same compound, in data set [1], the “inhibition ratio” value is recorded as < 0.5%.

With `CN1CCc2cc(N3CCn4nc(NC(=O)c5cccnc5)cc43)ccc2C1=O` [Compound I-347], on CYP1A2, the IC50 was > 20 µM. In addition, in “Solubility test”, the solubility at 16 h was > 50 µM. For the same compound, the “inhibition ratio” value in data set [1] stood at 6%.

Regarding `CNC(=O)Nc1nc2c(s1)CN(c1cc(Cl)nc(N)n1)CC2` [Compound I-118], on CYP1A2, the half-inhibitory concentration (IC50) is > 20 µM. Besides, the solubility at 16 h in “Solubility test” was > 50 µM. Further, the “inhibition ratio” value in data set [1] was 8.4%.

Take `COc1cc(N2CCc3nc(NC(=O)NCC(=O)O)sc3C2)nc(OC)n1` [Compound I-208]: at CYP1A2, the IC50 was > 20 µM. For the same compound, the solubility at 16 h in the data set “Solubility test” was > 50 µM. Besides, the “inhibition ratio” value in data set [1] was 2.7%.

Turning to `CN1CCc2cc(N3CCn4nc(NC(=O)c5ccco5)cc43)ccc2C1=O` [Compound I-358], the half-inhibitory concentration (IC50) against CYP1A2 was > 20 µM. In the data set “Solubility test”, the solubility at 16 h was > 50 µM.
